{"source": "ChEMBL document CHEMBL1275518", "about": "“Low penetration of oseltamivir and its carboxylate into cerebrospinal fluid in healthy Japanese and Caucasian volunteers” (Antimicrob Agents Chemother, 2008)", "key": {"[1]": {"experiment": "Cmax in healthy adult plasma at 150 mg, po administered as single dose by LC/MS analysis", "assay_type": "ADME, organism-based", "design": "dose 150 mg, route oral", "conditions": "human"}, "[2]": {"experiment": "Cmax in healthy adult CSF at 150 mg, po administered as single dose by LC/MS analysis", "assay_type": "ADME, organism-based, Cerebrospinal fluid", "design": "dose 150 mg, route oral", "conditions": "human"}, "[3]": {"experiment": "Tmax in healthy adult plasma at 150 mg, po administered as single dose by LC/MS analysis", "assay_type": "ADME, organism-based", "conditions": "human"}, "[4]": {"experiment": "Tmax in healthy adult CSF at 150 mg, po administered as single dose by LC/MS analysis", "assay_type": "ADME, organism-based, Cerebrospinal fluid", "conditions": "human"}, "[5]": {"experiment": "Clast in healthy adult plasma at 150 mg, po administered as single dose by LC/MS analysis", "assay_type": "ADME, organism-based", "conditions": "human, in vivo"}, "[6]": {"experiment": "Clast in healthy adult CSF at 150 mg, po administered as single dose by LC/MS analysis", "assay_type": "ADME, organism-based, Cerebrospinal fluid", "conditions": "human, in vivo"}, "[7]": {"experiment": "Tlast in healthy adult plasma at 150 mg, po administered as single dose by LC/MS analysis", "assay_type": "ADME, organism-based", "conditions": "human, in vivo"}, "[8]": {"experiment": "Tlast in healthy adult CSF at 150 mg, po administered as single dose by LC/MS analysis", "assay_type": "ADME, organism-based, Cerebrospinal fluid", "conditions": "human, in vivo"}, "[9]": {"experiment": "AUC (0 to last) in healthy adult plasma at 150 mg, po administered as single dose by LC/MS analysis", "assay_type": "ADME, organism-based", "design": "dose 150 mg, time 0 - last, route oral", "conditions": "human"}, "[10]": {"experiment": "AUC (0 to last) in healthy adult CSF at 150 mg, po administered as single dose by LC/MS analysis", "assay_type": "ADME, organism-based", "design": "dose 150 mg, route oral, time 0 - last", "conditions": "human"}, "[11]": {"experiment": "Half life in healthy adult plasma at 150 mg, po administered as single dose by LC/MS analysis", "assay_type": "ADME, organism-based", "conditions": "human"}, "[12]": {"experiment": "AUC (0 to infinity) in healthy adult plasma at 150 mg, po administered as single dose by LC/MS analysis", "assay_type": "ADME, organism-based", "design": "dose 150 mg, time infinity, route oral", "conditions": "human"}, "[13]": {"experiment": "Apparent oral clearance in healthy adult plasma at 150 mg, po administered as single dose by LC/MS analysis", "assay_type": "ADME, organism-based", "conditions": "human"}, "[14]": {"experiment": "Ratio of Cmax in healthy adult CSF to Cmax in healthy adult plasma at 150 mg, po administered as single dose", "assay_type": "ADME, organism-based", "conditions": "human"}, "[15]": {"experiment": "Ratio of AUC (0 to last) in healthy adult CSF to AUC (0 to last) in healthy adult plasma at 150 mg, po administered as single dose", "assay_type": "ADME, organism-based", "conditions": "human"}, "[16]": {"experiment": "Cmax in healthy adult plasma assessed as oseltamivir carboxylate at 150 mg, po administered as single dose by LC/MS analysis", "assay_type": "ADME, organism-based", "design": "dose 150 mg, route oral", "conditions": "human, in vivo"}, "[17]": {"experiment": "Cmax in healthy adult CSF assessed as oseltamivir carboxylate at 150 mg, po administered as single dose by LC/MS analysis", "assay_type": "ADME, organism-based, Cerebrospinal fluid", "design": "dose 150 mg, route oral", "conditions": "human, in vivo"}, "[18]": {"experiment": "Tmax in healthy adult plasma assessed as oseltamivir carboxylate at 150 mg, po administered as single dose by LC/MS analysis", "assay_type": "ADME, organism-based", "conditions": "human, in vivo"}, "[19]": {"experiment": "Tmax in healthy adult CSF assessed as oseltamivir carboxylate at 150 mg, po administered as single dose by LC/MS analysis", "assay_type": "ADME, organism-based, Cerebrospinal fluid", "conditions": "human, in vivo"}, "[20]": {"experiment": "Clast in healthy adult plasma assessed as oseltamivir carboxylate at 150 mg, po administered as single dose by LC/MS analysis", "assay_type": "ADME, organism-based", "conditions": "human, in vivo"}, "[21]": {"experiment": "Clast in healthy adult CSF assessed as oseltamivir carboxylate at 150 mg, po administered as single dose by LC/MS analysis", "assay_type": "ADME, organism-based, Cerebrospinal fluid", "conditions": "human, in vivo"}, "[22]": {"experiment": "Tlast in healthy adult plasma assessed as oseltamivir carboxylate at 150 mg, po administered as single dose by LC/MS analysis", "assay_type": "ADME, organism-based", "conditions": "human, in vivo"}, "[23]": {"experiment": "Tlast in healthy adult CSF assessed as oseltamivir carboxylate at 150 mg, po administered as single dose by LC/MS analysis", "assay_type": "ADME, organism-based, Cerebrospinal fluid", "conditions": "human, in vivo"}, "[24]": {"experiment": "AUC (0 to last) in healthy adult plasma assessed as oseltamivir carboxylate at 150 mg, po administered as single dose by LC/MS analysis", "assay_type": "ADME, organism-based", "design": "dose 150 mg, time 0 - last, route oral", "conditions": "human, in vivo"}, "[25]": {"experiment": "AUC (0 to last) in healthy adult CSF assessed as oseltamivir carboxylate at 150 mg, po administered as single dose by LC/MS analysis", "assay_type": "ADME, organism-based, Plasma", "design": "dose 150 mg, route oral, time 0 - last", "conditions": "human, in vivo"}, "[26]": {"experiment": "Half life in healthy adult plasma assessed as oseltamivir carboxylate at 150 mg, po administered as single dose by LC/MS analysis", "assay_type": "ADME, organism-based", "conditions": "human, in vivo"}, "[27]": {"experiment": "AUC (0 to infinity) in healthy adult plasma assessed as oseltamivir carboxylate at 150 mg, po administered as single dose by LC/MS analysis", "assay_type": "ADME, organism-based", "design": "dose 150 mg, time infinity, route oral", "conditions": "human, in vivo"}, "[28]": {"experiment": "Ratio of Cmax in healthy adult CSF to Cmax in healthy adult plasma assessed as oseltamivir carboxylate at 150 mg, po administered as single dose", "assay_type": "ADME, organism-based", "conditions": "human"}, "[29]": {"experiment": "Ratio of AUC (0 to last) in healthy adult CSF to AUC (0 to last) in healthy adult plasma assessed as oseltamivir carboxylate at 150 mg, po administered as single dose", "assay_type": "ADME, organism-based", "conditions": "human"}}}
{"smiles": "CCOC(=O)C1=C[C@@H](OC(CC)CC)[C@H](NC(C)=O)[C@@H](N)C1.O=P(O)(O)O", "note": "[OSELTAMIVIR PHOSPHATE]", "values": [{"measurement": "Cmax", "setting": "[1]", "value": 115, "unit": "ng/mL"}, {"measurement": "Cmax", "setting": "[2]", "value": 2.4, "unit": "ng/mL"}, {"measurement": "Tmax", "setting": "[3]", "value": 1, "unit": "h"}, {"measurement": "Tmax", "setting": "[4]", "value": 3.5, "unit": "h"}, {"measurement": "Clast", "setting": "[5]", "value": 2.1, "unit": "ng/mL"}, {"measurement": "Clast", "setting": "[6]", "value": 1.4, "unit": "ng/mL"}, {"measurement": "Tlast", "setting": "[7]", "value": 10.5, "unit": "h"}, {"measurement": "Tlast", "setting": "[8]", "value": 5.5, "unit": "h"}, {"measurement": "AUC(0-t)", "setting": "[9]", "value": 308, "unit": "ng·h/mL"}, {"measurement": "AUC(0-t)", "setting": "[10]", "value": 7.6, "unit": "ng·h/mL"}, {"measurement": "half-life", "setting": "[11]", "value": 108, "unit": "min"}, {"measurement": "AUC(0-inf)", "setting": "[12]", "value": 313, "unit": "ng·h/mL"}, {"measurement": "CL/F", "setting": "[13]", "value": 8370, "unit": "mL/min"}, {"measurement": "Kp", "setting": "[14]", "value": 2.1, "unit": "%"}, {"measurement": "Kp", "setting": "[15]", "value": 2.4, "unit": "%"}, {"measurement": "Cmax", "setting": "[16]", "value": 544, "unit": "ng/mL"}, {"measurement": "Cmax", "setting": "[17]", "value": 19, "unit": "ng/mL"}, {"measurement": "Tmax", "setting": "[18]", "value": 5, "unit": "h"}, {"measurement": "Tmax", "setting": "[19]", "value": 8, "unit": "h"}, {"measurement": "Clast", "setting": "[20]", "value": 50.2, "unit": "ng/mL"}, {"measurement": "Clast", "setting": "[21]", "value": 14.5, "unit": "ng/mL"}, {"measurement": "Tlast", "setting": "[22]", "value": 24, "unit": "h"}, {"measurement": "Tlast", "setting": "[23]", "value": 12, "unit": "h"}, {"measurement": "AUC", "setting": "[24]", "value": 5540, "unit": "ng·h/mL"}, {"measurement": "AUC", "setting": "[25]", "value": 157, "unit": "ng·h/mL"}, {"measurement": "t1/2", "setting": "[26]", "value": 5.4, "unit": "h"}, {"measurement": "AUC", "setting": "[27]", "value": 5950, "unit": "ng·h/mL"}, {"measurement": "Ratio", "setting": "[28]", "value": 3.5, "unit": "%"}, {"measurement": "Ratio AUC", "setting": "[29]", "value": 2.9, "unit": "%"}]}
